In EP4745135A1 (Gluetacs Therapeutics (Shanghai) Co., Ltd., priority 2023, dated 2025):

What was measured:
CK1α = biological target: T1, CK1α (Homo sapiens, UniProt P48729+Q96SW2); experiment: Western blot, degradation of substrate protein in hPBMCs; type: cell-based
T1 construct: effects of the compounds of the present disclosure on the expression of target proteins in cells; endogenous in cells; host or cells: human PBMCs (Milecell Biotechnologies)

IKZF1 = biological target: T2, IKZF1 (Homo sapiens, UniProt Q13422+Q96SW2); experiment: as above; type: cell-based
T2 construct: effects of the compounds of the present disclosure on the expression of target proteins in cells; endogenous in cells; host or cells: human PBMCs (Milecell Biotechnologies)
T2 sequence (Q13422 whole entry): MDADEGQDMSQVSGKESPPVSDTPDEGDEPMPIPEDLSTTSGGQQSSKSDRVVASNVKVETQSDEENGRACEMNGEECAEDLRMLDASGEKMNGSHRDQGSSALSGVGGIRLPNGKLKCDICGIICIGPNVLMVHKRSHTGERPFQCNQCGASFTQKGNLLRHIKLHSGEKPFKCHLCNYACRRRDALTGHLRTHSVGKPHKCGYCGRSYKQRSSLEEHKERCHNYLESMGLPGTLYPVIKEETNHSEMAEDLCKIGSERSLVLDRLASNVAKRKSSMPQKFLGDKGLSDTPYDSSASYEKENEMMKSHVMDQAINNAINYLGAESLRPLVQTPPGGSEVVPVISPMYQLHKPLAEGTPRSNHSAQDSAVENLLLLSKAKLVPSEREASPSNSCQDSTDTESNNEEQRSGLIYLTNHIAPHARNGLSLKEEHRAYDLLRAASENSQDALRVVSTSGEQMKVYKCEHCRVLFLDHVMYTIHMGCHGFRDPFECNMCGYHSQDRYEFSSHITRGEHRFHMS
T2 sequence (Q96SW2 whole entry): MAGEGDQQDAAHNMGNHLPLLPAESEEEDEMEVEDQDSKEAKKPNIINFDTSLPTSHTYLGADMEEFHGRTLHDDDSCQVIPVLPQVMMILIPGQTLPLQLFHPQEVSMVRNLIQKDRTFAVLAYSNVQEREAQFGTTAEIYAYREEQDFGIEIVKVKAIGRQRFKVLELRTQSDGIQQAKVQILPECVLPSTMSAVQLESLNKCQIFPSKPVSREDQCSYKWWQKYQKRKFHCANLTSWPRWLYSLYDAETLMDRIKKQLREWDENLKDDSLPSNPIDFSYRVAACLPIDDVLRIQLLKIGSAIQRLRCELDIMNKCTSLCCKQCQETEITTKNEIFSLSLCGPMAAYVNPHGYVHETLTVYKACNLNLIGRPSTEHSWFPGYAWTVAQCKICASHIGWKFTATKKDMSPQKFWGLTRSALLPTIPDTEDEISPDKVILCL
T2 sequence (Q16531 whole entry partner): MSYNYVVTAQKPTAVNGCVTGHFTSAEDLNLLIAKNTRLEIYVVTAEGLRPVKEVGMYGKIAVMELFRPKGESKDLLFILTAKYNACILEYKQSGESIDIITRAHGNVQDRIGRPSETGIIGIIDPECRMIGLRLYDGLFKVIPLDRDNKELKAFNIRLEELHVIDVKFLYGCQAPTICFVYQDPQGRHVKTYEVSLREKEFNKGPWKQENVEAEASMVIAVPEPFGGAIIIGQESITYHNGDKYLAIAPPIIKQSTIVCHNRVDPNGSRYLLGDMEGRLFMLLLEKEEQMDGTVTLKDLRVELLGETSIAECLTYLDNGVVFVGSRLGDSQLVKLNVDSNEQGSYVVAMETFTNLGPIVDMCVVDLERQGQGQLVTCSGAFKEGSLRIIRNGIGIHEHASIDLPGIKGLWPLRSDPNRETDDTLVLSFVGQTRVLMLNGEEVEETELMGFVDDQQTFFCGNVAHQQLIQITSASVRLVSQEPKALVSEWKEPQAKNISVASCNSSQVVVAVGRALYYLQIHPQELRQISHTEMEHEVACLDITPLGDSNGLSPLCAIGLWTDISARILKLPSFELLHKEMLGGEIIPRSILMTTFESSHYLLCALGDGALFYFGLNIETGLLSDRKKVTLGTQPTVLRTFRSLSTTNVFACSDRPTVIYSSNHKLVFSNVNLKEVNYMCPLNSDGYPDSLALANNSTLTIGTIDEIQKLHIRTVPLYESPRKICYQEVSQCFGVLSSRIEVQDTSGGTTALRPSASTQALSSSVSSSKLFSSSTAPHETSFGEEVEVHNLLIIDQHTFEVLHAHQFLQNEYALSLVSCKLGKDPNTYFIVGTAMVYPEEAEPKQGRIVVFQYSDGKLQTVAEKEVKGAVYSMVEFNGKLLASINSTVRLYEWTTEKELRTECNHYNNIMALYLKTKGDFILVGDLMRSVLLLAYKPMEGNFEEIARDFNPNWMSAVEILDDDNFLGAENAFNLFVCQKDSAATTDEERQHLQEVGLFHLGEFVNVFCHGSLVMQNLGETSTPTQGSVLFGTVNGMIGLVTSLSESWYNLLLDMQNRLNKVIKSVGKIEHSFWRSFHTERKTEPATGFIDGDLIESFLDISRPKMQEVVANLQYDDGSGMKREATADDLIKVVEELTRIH

IKZF2 = biological target: T3, IKZF2 (Homo sapiens, UniProt Q96SW2+Q9UKS7); experiment: as above; type: cell-based
T3 construct: effects of the compounds of the present disclosure on the expression of target proteins in cells; endogenous in cells; host or cells: human PBMCs (Milecell Biotechnologies)
T3 sequence (Q9UKS7 whole entry): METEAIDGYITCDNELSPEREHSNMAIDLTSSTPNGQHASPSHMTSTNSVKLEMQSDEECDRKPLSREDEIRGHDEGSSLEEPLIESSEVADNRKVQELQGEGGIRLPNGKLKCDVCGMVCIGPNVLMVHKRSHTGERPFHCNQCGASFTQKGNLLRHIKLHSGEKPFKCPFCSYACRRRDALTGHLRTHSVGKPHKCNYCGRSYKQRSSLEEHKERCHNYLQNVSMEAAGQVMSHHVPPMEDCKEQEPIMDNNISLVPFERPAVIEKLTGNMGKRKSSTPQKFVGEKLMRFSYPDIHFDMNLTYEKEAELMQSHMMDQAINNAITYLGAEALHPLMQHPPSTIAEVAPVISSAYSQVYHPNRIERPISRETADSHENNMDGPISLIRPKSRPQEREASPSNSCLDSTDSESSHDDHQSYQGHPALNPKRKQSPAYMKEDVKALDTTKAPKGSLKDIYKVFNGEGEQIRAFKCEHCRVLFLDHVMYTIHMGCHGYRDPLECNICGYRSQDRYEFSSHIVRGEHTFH
T3 sequence (Q96SW2 whole entry): as the sequence (Q96SW2 whole entry) above
T3 sequence (Q16531 whole entry partner): as the sequence (Q16531 whole entry partner) above

IKZF3 = biological target: T4, IKZF3 (Homo sapiens, UniProt Q96SW2+Q9UKT9); experiment: as above; type: cell-based
T4 construct: effects of the compounds of the present disclosure on the expression of target proteins in cells; endogenous in cells; host or cells: human PBMCs (Milecell Biotechnologies)
T4 sequence (Q9UKT9 whole entry): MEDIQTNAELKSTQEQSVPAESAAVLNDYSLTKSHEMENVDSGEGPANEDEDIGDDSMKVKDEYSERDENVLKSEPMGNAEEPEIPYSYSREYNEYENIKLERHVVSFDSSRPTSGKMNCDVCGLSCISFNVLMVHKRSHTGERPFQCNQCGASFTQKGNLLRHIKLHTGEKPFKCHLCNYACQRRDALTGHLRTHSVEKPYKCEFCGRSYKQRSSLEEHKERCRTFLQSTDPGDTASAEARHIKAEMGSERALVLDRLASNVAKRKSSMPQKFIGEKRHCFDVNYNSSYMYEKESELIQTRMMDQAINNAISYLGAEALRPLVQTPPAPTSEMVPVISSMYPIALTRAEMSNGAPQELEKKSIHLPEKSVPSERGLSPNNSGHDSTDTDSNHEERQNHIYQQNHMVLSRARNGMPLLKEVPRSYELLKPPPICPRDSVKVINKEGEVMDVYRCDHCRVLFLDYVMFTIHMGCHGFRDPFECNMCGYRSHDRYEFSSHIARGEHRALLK
T4 sequence (Q96SW2 whole entry): as the sequence (Q96SW2 whole entry) above
T4 sequence (Q16531 whole entry partner): as the sequence (Q16531 whole entry partner) above

WEE1 = biological target: T5, WEE1 (Homo sapiens, UniProt P30291+Q96SW2); experiment: as above; type: cell-based
T5 construct: effects of the compounds of the present disclosure on the expression of target proteins in cells; endogenous in cells; host or cells: human PBMCs (Milecell Biotechnologies)
T5 sequence (P30291 whole entry): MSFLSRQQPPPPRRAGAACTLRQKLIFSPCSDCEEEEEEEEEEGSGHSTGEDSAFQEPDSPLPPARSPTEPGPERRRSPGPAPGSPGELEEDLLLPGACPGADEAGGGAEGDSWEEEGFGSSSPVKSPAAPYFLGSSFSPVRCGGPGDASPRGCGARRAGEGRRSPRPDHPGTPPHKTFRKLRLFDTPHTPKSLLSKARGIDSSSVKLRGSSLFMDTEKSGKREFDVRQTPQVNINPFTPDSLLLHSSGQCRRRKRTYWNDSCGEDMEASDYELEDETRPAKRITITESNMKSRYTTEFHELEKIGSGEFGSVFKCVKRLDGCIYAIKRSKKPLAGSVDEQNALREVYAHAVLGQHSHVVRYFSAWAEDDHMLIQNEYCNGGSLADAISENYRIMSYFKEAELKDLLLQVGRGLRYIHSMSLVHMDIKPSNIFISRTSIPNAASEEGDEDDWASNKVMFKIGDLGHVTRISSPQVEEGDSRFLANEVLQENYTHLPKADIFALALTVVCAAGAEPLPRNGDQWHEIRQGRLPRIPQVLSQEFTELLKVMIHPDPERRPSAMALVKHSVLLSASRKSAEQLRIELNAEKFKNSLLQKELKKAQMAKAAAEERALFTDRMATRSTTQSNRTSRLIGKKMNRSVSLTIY
T5 sequence (Q96SW2 whole entry): as the sequence (Q96SW2 whole entry) above
T5 sequence (Q16531 whole entry partner): as the sequence (Q16531 whole entry partner) above

GSPT1 = experiment: as above; type: cell-based, Human
[1] = biological target: T6, human Cereblon WT GST-tagged protein (Homo sapiens, UniProt Q96SW2); experiment: CRBN-binding affinity, HTRF (CEREBLON BINDING kit); conditions: for inhibition at 0.5 µM: read-out: Inhibition Rate at 0.5 µM (%); for inhibition at 2 µM: read-out: Inhibition Rate at 2 µM (%)
T6 construct: purchased CISBIO 64BDCRBNPEH
T6 sequence (Q96SW2 whole entry): as the sequence (Q96SW2 whole entry) above

[2] = Western blot, 24 hours of compound treatment, compounds tested at 50 nM and 500 nM (concentration for the table not stated)
[3] = 24 hours treatment, compounds at 50 nM and 500 nM (concentration behind the class not stated)

T1 sequence (P48729 whole entry): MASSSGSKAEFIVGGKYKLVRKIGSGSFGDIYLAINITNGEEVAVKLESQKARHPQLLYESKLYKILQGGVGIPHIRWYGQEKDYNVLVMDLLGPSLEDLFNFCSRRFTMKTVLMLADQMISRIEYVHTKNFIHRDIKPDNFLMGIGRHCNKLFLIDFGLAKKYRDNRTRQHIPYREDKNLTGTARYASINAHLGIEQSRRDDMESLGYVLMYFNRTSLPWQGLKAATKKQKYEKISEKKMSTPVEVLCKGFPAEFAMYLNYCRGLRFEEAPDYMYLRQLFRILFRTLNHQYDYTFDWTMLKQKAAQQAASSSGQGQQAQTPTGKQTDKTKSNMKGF
T1 sequence (Q96SW2 whole entry): as the sequence (Q96SW2 whole entry) above
T1 sequence (Q16531 whole entry partner): as the sequence (Q16531 whole entry partner) above

Row | Compound | CK1α substrate protein remaining % (CK1α; [2]) | IKZF 1 substrate protein remaining % (IKZF1; [2]) | IKZF2 substrate protein remaining % (IKZF2; [2]) | IKZF3 substrate protein remaining % (IKZF3; [2]) | Wee1 substrate protein remaining % (WEE1; [2]) | GSPT1 substrate protein remaining % (GSPT1; [2]) | inhibition at 0.5 µM [1] | inhibition at 2 µM [1] | CK1α substrate protein remaining % (CK1α; [3]) | IKZF 1 substrate protein remaining % (IKZF1; [3]) | IKZF2 substrate protein remaining % (IKZF2; [3]) | IKZF3 substrate protein remaining % (IKZF3; [3]) | Wee1 substrate protein remaining % (WEE1; [3]) | GSPT1 substrate protein remaining % (GSPT1; [3])
1 | O=C1CCC(N2Cc3c(CN4CCC(c5ccc(Cl)cc5)CC4)cccc3C2=S)C(=O)N1 (stereo not drawn) [GT-08594, 3-(4-((4-(4-chlorophenyl)piperidin-1-yl)methyl)-1-thioxoisoindolin-2-yl)piperidine-2,6-dione] | B (80%< substrate protein remaining %≤ 100%) | B (80%< substrate protein remaining %≤ 100%) | A (0% ≤ substrate protein remaining % ≤ 80%) | B (80%< substrate protein remaining %≤ 100%) | A (0% ≤ substrate protein remaining % ≤ 80%) | B (80%< substrate protein remaining %≤ 100%) | 30 to 40% | 53 to 60% | – | – | – | – | – | –
2 | O=C1CCC(N2Cc3cc(CN4CCN(c5cccs5)CC4)ccc3C2=S)C(=O)N1 (stereo not drawn) [GT-08168, 3-(5-((4-(thiophen-2-yl)piperazin-1-yl)methyl)-1-thioxoisoindolin-2-yl)piperidine-2,6-dione] | – | – | – | – | – | – | 80 to 100% | 80 to 100% | B (80%< substrate protein remaining %≤ 100%) | B (80%< substrate protein remaining %≤ 100%) | B (80%< substrate protein remaining %≤ 100%) | B (80%< substrate protein remaining %≤ 100%) | A (0% ≤ substrate protein remaining % ≤ 80%) | A (0% ≤ substrate protein remaining % ≤ 80%)
3 | O=C1CCC(N2Cc3c(CN4CCN(c5ccc(Cl)nn5)CC4)cccc3C2=S)C(=O)N1 (stereo not drawn) [GT-08811, 3-(4-((4-(6-chloropyridazin-3-yl)piperazin-1-yl)methyl)-1-thioxoisoindolin-2-yl)piperidine-2,6-dione] | A (0% ≤ substrate protein remaining % ≤ 80%) | A (0% ≤ substrate protein remaining % ≤ 80%) | A (0% ≤ substrate protein remaining % ≤ 80%) | A (0% ≤ substrate protein remaining % ≤ 80%) | A (0% ≤ substrate protein remaining % ≤ 80%) | A (0% ≤ substrate protein remaining % ≤ 80%) | 60 to 80% | 80 to 100% | – | – | – | – | – | –
4 | Cc1sc2ncnc(C3=CCN(Cc4cccc5c4CN(C4CCC(=O)NC4=O)C5=S)CC3)c2c1C (stereo not drawn) [GT-08955, 3-(4-((4-(5,6-dimethylthieno[2,3-d]pyrimidin-4-yl)-3,6-dihydropyridin-1(2H)-yl)methyl)-1-thioxoisoindolin-2-yl)piperidine-2,6-dione] | – | – | – | – | – | – | 40 to 53% | 60 to 80% | B (80%< substrate protein remaining %≤ 100%) | B (80%< substrate protein remaining %≤ 100%) | B (80%< substrate protein remaining %≤ 100%) | B (80%< substrate protein remaining %≤ 100%) | A (0% ≤ substrate protein remaining % ≤ 80%) | B (80%< substrate protein remaining %≤ 100%)
5 | CC1(C)CCC(CN2CC3CC(C2)N3Cc2ccc3c(c2)CN(C2CCC(=O)NC2=O)C3=S)=C(c2ccc(Cl)cc2)C1 (stereo not drawn) [GT-08160, 3-(5-((3-((4'-chloro-5,5-dimethyl-3,4,5,6-tetrahydro-[1,1'-biphenyl]-2-yl)methyl)-3,6-diazabicyclo[3.1.1]heptan-6-yl)methyl)-1-thioxoisoindolin-2-yl)piperidine-2,6-dione] | – | – | – | – | – | – | 53 to 60% | 80 to 100% | B (80%< substrate protein remaining %≤ 100%) | B (80%< substrate protein remaining %≤ 100%) | A (0% ≤ substrate protein remaining % ≤ 80%) | A (0% ≤ substrate protein remaining % ≤ 80%) | A (0% ≤ substrate protein remaining % ≤ 80%) | A (0% ≤ substrate protein remaining % ≤ 80%)
6 | O=C1CCC(N2Cc3c(CN4CCN(c5ccc(F)c(F)c5)CC4)cccc3C2=S)C(=O)N1 (stereo not drawn) [GT-08631, 3-(4-((4-(3,4-difluorophenyl)piperazin-1-yl)methyl)-1-thioxoisoindolin-2-yl)piperidine-2,6-dione] | B (80%< substrate protein remaining %≤ 100%) | B (80%< substrate protein remaining %≤ 100%) | B (80%< substrate protein remaining %≤ 100%) | B (80%< substrate protein remaining %≤ 100%) | A (0% ≤ substrate protein remaining % ≤ 80%) | B (80%< substrate protein remaining %≤ 100%) | 60 to 80% | 80 to 100% | – | – | – | – | – | –
7 | O=C1CCC(N2Cc3c(CN4CC=C(c5cncc(Cl)c5)CC4)cccc3C2=S)C(=O)N1 (stereo not drawn) [GT-08461, 3-(4-((5-chloro-3',6'-dihydro-[3,4'-bipyridin]-1'(2'H)-yl)methyl)-1-thioxoisoindolin-2-yl)piperidine-2,6-dione] | B (80%< substrate protein remaining %≤ 100%) | B (80%< substrate protein remaining %≤ 100%) | B (80%< substrate protein remaining %≤ 100%) | A (0% ≤ substrate protein remaining % ≤ 80%) | A (0% ≤ substrate protein remaining % ≤ 80%) | B (80%< substrate protein remaining %≤ 100%) | 60 to 80% | 80 to 100% | – | – | – | – | – | –
8 | Cc1sc2ncnc(N3CCN(Cc4cccc5c4CN(C4CCC(=O)NC4=O)C5=S)CC3)c2c1C (stereo not drawn) [GT-08916, 3-(4-((4-(5,6-dimethylthieno[2,3-d]pyrimidin-4-yl)piperazin-1-yl)methyl)-1-thioxoisoindolin-2-yl)piperidine-2,6-dione] | – | – | – | – | – | – | 40 to 53% | 80 to 100% | B (80%< substrate protein remaining %≤ 100%) | B (80%< substrate protein remaining %≤ 100%) | B (80%< substrate protein remaining %≤ 100%) | B (80%< substrate protein remaining %≤ 100%) | A (0% ≤ substrate protein remaining % ≤ 80%) | A (0% ≤ substrate protein remaining % ≤ 80%)
9 | Cc1nc(N2CCN(Cc3cccc4c3CN(C3CCC(=O)NC3=O)C4=S)CC2)c2ccsc2n1 (stereo not drawn) [GT-08922, 3-(4-((4-(2-methylthieno[2,3-d]pyrimidin-4-yl)piperazin-1-yl)methyl)-1-thioxoisoindolin-2-yl)piperidine-2,6-dione] | – | – | – | – | – | – | 60 to 80% | 80 to 100% | B (80%< substrate protein remaining %≤ 100%) | B (80%< substrate protein remaining %≤ 100%) | B (80%< substrate protein remaining %≤ 100%) | B (80%< substrate protein remaining %≤ 100%) | A (0% ≤ substrate protein remaining % ≤ 80%) | B (80%< substrate protein remaining %≤ 100%)
10 | Cc1nc(N2CCN(Cc3ccc4c(c3)CN(C3CCC(=O)NC3=O)C4=S)CC2)c2c3c(sc2n1)CCCC3 (stereo not drawn) [GT-09299, 3-(5-((4-(2-methyl-5,6,7,8-tetrahydrobenzo[4,5]thieno[2,3-d]pyrimidin-4-yl)piperazin-1-yl)methyl)-1-thioxoisoindolin-2-yl)piperidine-2,6-dione] | – | – | – | – | – | – | 53 to 60% | 80 to 100% | B (80%< substrate protein remaining %≤ 100%) | B (80%< substrate protein remaining %≤ 100%) | A (0% ≤ substrate protein remaining % ≤ 80%) | A (0% ≤ substrate protein remaining % ≤ 80%) | B (80%< substrate protein remaining %≤ 100%) | B (80%< substrate protein remaining %≤ 100%)
11 | Cc1cc(N2CCN(Cc3ccc4c(c3)CN(C3CCC(=O)NC3=O)C4=S)CC2)ccn1 (stereo not drawn) [GT-09234, 3-(5-((4-(2-methylpyridin-4-yl)piperazin-1-yl)methyl)-1-thioxoisoindolin-2-yl)piperidine-2,6-dione] | A (0% ≤ substrate protein remaining % ≤ 80%) | A (0% ≤ substrate protein remaining % ≤ 80%) | A (0% ≤ substrate protein remaining % ≤ 80%) | A (0% ≤ substrate protein remaining % ≤ 80%) | A (0% ≤ substrate protein remaining % ≤ 80%) | A (0% ≤ substrate protein remaining % ≤ 80%) | 60 to 80% | 80 to 100% | – | – | – | – | – | –
12 | O=C1CCC(N2Cc3c(CN4CCN(c5ncccc5F)CC4)cccc3C2=S)C(=O)N1 (stereo not drawn) [GT-08697, 3-(4-((4-(3-fluoropyridin-2-yl)piperazin-1-yl)methyl)-1-thioxoisoindolin-2-yl)piperidine-2,6-dione] | B (80%< substrate protein remaining %≤ 100%) | B (80%< substrate protein remaining %≤ 100%) | B (80%< substrate protein remaining %≤ 100%) | B (80%< substrate protein remaining %≤ 100%) | A (0% ≤ substrate protein remaining % ≤ 80%) | B (80%< substrate protein remaining %≤ 100%) | 60 to 80% | 80 to 100% | – | – | – | – | – | –
